Blank lines part the entries; values can stand above or below the compound they belong to.
Columns and labels:
[1] = system: p66shc-aequorin (p66shc-AEQ) probe; experiment: Translocation of p66shc-aequorin probe to the plasmatic membrane, A431 cells; type: cell-based
From the text: This probe was obtained by inserting, in a eukaryotic expression vector (pcDNA3; 5.4 kb), the sequence encoding the p66shc protein condensed in frame with the sequence encoding aequorin.
The cells cultivated on cellular culture flasks (75 cm^2) were transfected with a vector containing the chimeric probe produced, using the most suitable transfection techniques for the cellular line in question. The stabilized transfected cellular line A431 was adopted as experimental model, using the “Effectene reagent” procedure (Qiagen, Germany), which guarantees a high percentage of positive cells for this cellular line.
24 hours after the transfection, the cells were maintained in a DMEM culture medium, without serum.
(§1) 36 hours after transfection, the cells contained in the flask were detached from the bottom by trypsinization.
The prosthetic group celentherazine was added to the suspension of cells expressing the p66shc-aequorin probe, at a final concentration of 5 μM. […]

[2] = system: PKC-aequorin (PKC-AEQ) probe: PKC beta, delta, epsilon, zeta; experiment: Translocation of PKC-aequorin probe to the plasmatic membrane, HeLa cells, photon emission; type: cell-based
From the text: In the specific example, the results presented relate to the use of the PKC beta-aequorin (PCKβ-AEQ), PKC delta-aequorin (PCKδ-AEQ), PKC epsilon-aequorin (PCKε-AEQ), PKC zeta-aequorin (PCKζ-AEQ) probes.
These probes were obtained by inserting, in a eukaryotic expression vector (pcDNA3; 5.4 kb), the sequence encoding the various PKC isoforms condensed in frame with the sequence encoding aequorin described above.
The cells cultivated on cellular culture flasks (75 cm^2) were transfected with a vector containing the chimeric probe produced, using the most suitable transfection techniques for the cellular line in question. As the HeLa stabilized cellular line was used as experimental model, the calcium phosphate technique was adopted as transfection method which guarantees a high percentage of positive cells for this cellular line.
as §1
The prosthetic group celentherazine was added to the suspension of cells expressing the PKC-aequorin probe at a final concentration of 5 μM. […]

[3] = molecular target: endogenous receptor for histamine Hi (Homo sapiens, UniProt P35367); details: HeLa mt-AEQ cells, histamine 100 μM
Protocol: (§2) The cellular lines thus engineered were then both transfected with the vector containing the mt-AEQ probe by means of the calcium phosphate technique.
(§3) 36 hours after the transfection, the cells, cultivated on flasks for cellular cultures (75 cm^2), were detached from the bottom by trypsinization. The cellular suspension was then transferred to a Falcon tube (of 15 or 50 ml) and subjected to centrifugation at 1200 rpm in a cell centrifuge at 20° C. and finally the cellular precipitate was re-suspended in KRB/Ca^2+ (Krebs-Ringer modified buffer: 125 mM NaCl, 5 mM KCl, 1 mM CaCl2, 1 mM Na3PO4, 1 mM MgSO4, 5.5 mM glucose, 20 mM HEPES, pH 7.4, 37° C.).
(§4) The prosthetic group celentherazine was added at a final concentration of 5 μM to the suspension of engineered cells expressing the mt-AEQ probe.
(§5) 50 μl of suspension containing transfected cells (corresponding to about 100,000 cells) were planted in each well of the plate. The cells were left to adhere for a time varying from 1 to 2 hours keeping them in the dark, due to the photo-instability of celentherazine.
(§6) At the end of the incubation time, the various molecules to be tested were added to each well and the plate with the treated cells was then put in direct contact with a photo-multiplier which measures the emission of photons on the part of aequorin. […]

[4] = system: endogenous receptor for ATP P2Y; experiment: mt-AEQ photon emission, CHO cells, endogenous ATP receptor; type: cell-based; details: ATP 100 μM
Protocol: as §3, §4, §5
(§7) At the end of the incubation time, the various molecules to be tested were added to each well and the plate with the treated cells was then put in direct contact with a photo-multiplier which measures the emission of photons on the part of aequorin.

[5] = system: ORL1/alpha adrenergic receptor (chimeric); experiment: mt-AEQ photon emission, CHO cells expressing chimeric ORL1/alpha adrenergic receptor; type: cell-based; details: CHO mt-AEQ cells with chimeric receptor, nociceptine 1 μM; from less than 20 before stimulation
Protocol: as §2, §3, §4, §5, §6

[6] = system: PKC beta-aequorin (PKCβ-AEQ) probe; experiment: Translocation of PKC beta-aequorin probe under hyperglycaemia conditions, HUVEC cells; type: cell-based; details: 10 mM glucose plus metformin 20 μM
From the text: A beta-aequorin PKC probe, already described in example 1, was used, with which HUVEC endothelial cells were transfected. The cells cultivated on cellular culture flasks (75 cm^2) were transfected with a vector containing the chimeric probe produced, using the most suitable transfection techniques for the cellular line in question. Endothelial cells of stabilized umbilical cord veins, called HUVEC, were used as the experimental model, which were transfected with the PKC beta-aequorin probe, using lipofectamine which guarantees a high percentage of positive cells for this cellular line. 36 hours after transfection, the cells contained in the flask were detached from the bottom by trypsinization. […] The prosthetic group celentherazine at a final concentration of 5 μM was added to the cell suspension expressing the PKC beta-aequorin probe. […] The example provided was carried out on three parallel batches of cells: a) HUVEC cells expressing the PKC beta-aequorin (PKCβ-AEQ) probe, maintained under control conditions (absence of glucose) (dotted line). b) HUVEC cells expressing the PKC beta-aequorin (PKCβ-AEQ) probe, maintained under hyperglycaemia conditions (10 mM of glucose) (dark, thick line). c) HUVEC cells expressing the PKC beta-aequorin (PKCβ-AEQ) probe, maintained under hyperglycaemia conditions (10 mM of glucose) treated with a well-known anti-diabetic agent, metformin (20 μM) (dark, thin line).

[7] = system: beta/alpha adrenergic receptor (chimeric); experiment: mt-AEQ photon emission, HeLa cells expressing chimeric beta/alpha adrenergic receptor; type: cell-based; details: HeLa mt-AEQ cells with chimeric receptor, isoproterenol 100 μM; from less than 20 before stimulation
Protocol: as §2, §3, §4, §5, §6

beta adrenergic receptor = experiment: mt-AEQ photon emission, control HeLa cells expressing beta adrenergic receptor; type: cell-based; details: control HeLa cells expressing a beta adrenergic receptor, stimulated with isoproterenol
Protocol: as §3, §4, §5, §7
HeLa cells expressing a beta adrenergic receptor and stimulated with isoproterenol for inducing the stimulation of said receptor, were used as control (dotted line).

[8] = from less than 20 before stimulation

Sequence of endogenous receptor for histamine Hi (P35367 whole entry): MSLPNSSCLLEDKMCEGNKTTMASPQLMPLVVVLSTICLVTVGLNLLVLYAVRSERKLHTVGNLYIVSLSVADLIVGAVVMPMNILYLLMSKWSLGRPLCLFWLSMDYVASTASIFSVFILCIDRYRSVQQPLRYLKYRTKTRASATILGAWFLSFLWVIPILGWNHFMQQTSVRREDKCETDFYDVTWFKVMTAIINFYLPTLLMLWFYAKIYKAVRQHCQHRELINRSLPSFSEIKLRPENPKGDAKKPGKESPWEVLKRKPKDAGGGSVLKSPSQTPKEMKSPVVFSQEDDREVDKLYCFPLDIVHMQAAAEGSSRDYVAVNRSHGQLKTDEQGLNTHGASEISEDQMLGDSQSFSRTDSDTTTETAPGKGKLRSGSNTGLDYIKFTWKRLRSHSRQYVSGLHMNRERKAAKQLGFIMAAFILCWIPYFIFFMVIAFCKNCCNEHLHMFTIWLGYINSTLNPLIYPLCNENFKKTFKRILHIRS

Compound: EGF: epidermic growth factor, maximal activator of p66shc translocation
- emission of photons ([1]; A431 cells, absence of external calcium): lower than 100 cps
- emission of photons ([1]; A431 p66shc-AEQ cells, EGF 100 ng/ml, after addition of external calcium): > 100,000 cps

Compound: CCCCCCCCCCCCCC(=O)O[C@@H]1[C@@H](C)[C@@]2(O)[C@@H](C=C(CO)C[C@]3(O)C(=O)C(C)=C[C@@H]23)[C@@H]2C(C)(C)[C@]12OC(C)=O [PMA]
- emission of photons ([2]; HeLa PKC-AEQ cells, PMA 1 μM, after addition of external calcium): > 100,000 cps
- emission of photons ([2]; HeLa cells, absence of external calcium): lower than 100 cps

- concentration of calcium in the mitochondrial matrix [3]: considerable and transient increase
- emission of photons on the part of aequorin [3, 8]: over 80,000 photons emitted per second
Compound: NCCc1c[nH]cn1 [histamine, Histamine]

Compound: Nc1ncnc2c1ncn2[C@@H]1O[C@H](COP(=O)(O)OP(=O)(O)OP(=O)(O)O)[C@@H](O)[C@H]1O [ATP]
- concentration of calcium in the mitochondrial matrix [4]: considerable and transient increase
- emission of photons on the part of aequorin [4, 8]: over 80,000 photons emitted per second

Compound: Nociceptine
- emission of photons on the part of aequorin [5]: over 80,000 photons emitted per second

Compound: CN(C)C(=N)N=C(N)N [metformin]
- emission of photons ([6]; HUVEC PKCβ-AEQ cells, after addition of external calcium): lower than 40,000 cps
- inhibition of the PKCβ-AEQ probe translocation (grade) ([6]; HUVEC): good inhibition
- translocation induced by glucose under hyperglycaemia conditions ([6]; HUVEC): inhibits the translocation

Compound: CC(C)NCC(O)c1ccc(O)c(O)c1 (centres unmarked) [isoproterenol, Isoproterenol]
- emission of photons on the part of aequorin [7]: over 80,000 photons emitted per second
- increase in cps (beta adrenergic receptor): does not induce any increase in cps
